# Reference: ChEMBL document CHEMBL1933041, “Synthesis and biological evaluation of substituted pyrazoles as blockers of divalent metal transporter 1 (DMT1)” (Bioorg Med Chem Lett, 2012)
# Experiments:
# [1] = Permeability from basolateral to apical side in human Caco2 cells; assay type: ADME, cell-based; details: Caco-2, read-out: permeability
# [2] = Permeability from apical to basolateral side in human Caco2 cells; assay type: ADME, cell-based; details: Caco-2, read-out: permeability
Papp B→A [1] [×10⁻⁶ cm/s],Papp A→B [2] [×10⁻⁶ cm/s],Structure (SMILES)
0.6,0.3,CCN(CC)c1ccc(/C=C2\C(=O)N(c3ccccn3)N=C2C)cc1
16.7,8.2,Cc1nn(-c2ccccn2)c(O)c1-c1ccccc1
6.6,6.7,Cc1nn(-c2nc3ccccc3s2)c(O)c1-c1ccccc1
13.5,10.1,Cc1nn(-c2nc3ccccc3[nH]2)c(O)c1-c1ccccc1
3.4,5.2,Cc1ccc2nc(-n3nc4c(c3O)-c3ccccc3CC4)sc2c1
16.7,12.7,COc1ccc2nc(-n3nc4c(c3O)-c3ccccc3CC4)sc2c1
1.1,4.3,Oc1c2c(nn1-c1nc3ccc(F)cc3s1)CCc1ccccc1-2
24,20.8,Oc1c2c(nn1-c1nc3ccccc3s1)CCc1ccccc1-2
11.7,8.9,Oc1c2c(nn1-c1ccccn1)CCc1ccccc1-2
6.3,5.1,Oc1c2c(nn1-c1nc3ccccc3[nH]1)CCc1ccccc1-2
0.9,0.1,Oc1c2c(nn1-c1ccccn1)CCc1cc(-c3ccccc3)ccc1-2
7.6,3.2,Oc1c2c(nn1-c1ccccn1)CCc1cc(Br)ccc1-2
13.1,2.3,N#Cc1ccc2c(c1)CCc1nn(-c3ccccn3)c(O)c1-2
19.6,10.4,Cc1[nH]n(-c2ccccn2)c(=O)c1C(=O)Nc1ccccc1
23.8,23.9,Cc1[nH]n(-c2nccs2)c(=O)c1-c1ccccc1
15.6,9.9,Cc1cccc(NC(=O)c2c(C)[nH]n(-c3ccccn3)c2=O)c1

Papp B→A [1] [×10⁻⁶ cm/s],Papp A→B [2] [×10⁻⁶ cm/s],Structure (SMILES)
15.4,9,COc1cccc(NC(=O)c2c(C)[nH]n(-c3ccccn3)c2=O)c1
15.3,6.1,Cc1ccc(NC(=O)c2c(C)[nH]n(-c3ccccn3)c2=O)cc1
15.5,11.2,Cc1[nH]n(-c2ccccn2)c(=O)c1C(=O)Nc1ccccc1[N+](=O)[O-]
14.2,7.8,Cc1[nH]n(-c2ccccn2)c(=O)c1C(=O)Nc1ccccc1C(F)(F)F
20.8,9.3,Cc1[nH]n(-c2ccccn2)c(=O)c1C(=O)Nc1ccc2c(c1)OCO2
16.3,12.7,COc1ccc(-c2c(C)[nH]n(-c3ccccn3)c2=O)cc1
27.8,21.4,Cc1[nH]n(-c2ccccn2)c(=O)c1-c1ccc(C#N)cc1
5.6,3.5,Cc1[nH]n(-c2ccccn2)c(=O)c1-c1ccc([N+](=O)[O-])cc1
7.9,3.1,Cc1[nH]n(-c2ccccn2)c(=O)c1-c1ccc(C(F)(F)F)cc1
5.8,7,Cc1[nH]n(-c2ccccn2)c(=O)c1-c1cccc(C(F)(F)F)c1
15.9,11.2,Cc1[nH]n(-c2ccccn2)c(=O)c1-c1ccc(F)cc1
20.1,16.8,Cc1[nH]n(-c2nc3ccc(F)cc3s2)c(=O)c1-c1ccccc1
8.9,4.5,Cc1[nH]n(-c2ccccn2)c(=O)c1C(=O)Nc1cccc(C(F)(F)F)c1
11.5,7.6,Cc1[nH]n(-c2ccccn2)c(=O)c1C(=O)Nc1ccc([N+](=O)[O-])cc1
13.2,6.6,COc1ccc(NC(=O)c2c(C)[nH]n(-c3ccccn3)c2=O)cc1F
3.9,0.6,Cc1[nH]n(-c2ccccn2)c(=O)c1C(=O)Nc1ccc(C(F)(F)F)cc1
